Here are results for two compounds from PMC5609913, “Structure based design, synthesis and activity studies of small hybrid molecules as HDAC and G9a dual inhibitors” (Oncotarget, 2017).

Molecules are shown by their SMILES.

Experiment [1] relates to HDAC. As to the kind of experiment: Homogeneous cellular histone deacetylase assay, K562. To be noted: Table 3; Boc-K(Ac)-AMC substrate, intact K562 cells; read-out: K562 IC50. The format is cell-based, human. How it is done: (§1) The enzymatic activity of HDAC was measured in intact cells using the homogeneous cellular assay method. A cell-permeable peptide Boc-K(Ac)-AMC used as the HDAC substrate, after deacetylation it is cleaved by trypsin to release the fluorescent 7-amino-4-methylcoumarin (AMC) and further quantified.
(§2) The manual assay was developed by Thomas's group. […] After 24 h, 9 μl inhibitors with different concentration were added to the HeLa cells and incubation was continued for 3 h under cell culture conditions. After this treatment period, 10 μl of a 2 mM stock solution of the substrate Boc-K(Ac)-AMC was added into the 96 well plates with Hela cells and inhibitors. […] A549 and K562 cell lines used the same method, respectively. IC50s were calculated using GraphPad Prizm statistical package with sigmoidal variable slope dose response curve fit.

The subject of a further experiment is A549 cells. The experiment in a line: Cell anti-proliferation / toxicity assay (CCK-8), A549. The format is cell-based. As to conditions: Homo sapiens, Table 6, 72 h, >100 = not reached at highest tested concentration (100 μM). How it is done:
(§3) Cell anti-proliferation assays were performed to determine the toxicity of these inhibitors. […] These compounds were further evaluated against the control cell line HEK293 to test their toxicity with a non-cancerous cell line.
(§4) And then the cells were exposed to the different inhibitors with various concentrations for 72 h. […] EC50s were calculated using GraphPad Prizm statistical package with sigmoidal variable slope dose response curve fit.

Experiment [2] deals with HDAC. The experiment in a line: Homogeneous cellular histone deacetylase assay, Hela. The format is cell-based, human. To be noted: Table 3; Boc-K(Ac)-AMC substrate, intact Hela cells; read-out: Hela IC50. The method, then: as §1, §2
Experiment [3] addresses T1, Mouse histone methyltransferase G9a (969-1263) (Mus musculus, UniProt Q9Z148).
T1 construct: The 6His-sumo mG9a (969-1263) protein was purified using the following procedure; 6His-sumo (N, cleaved yes); made in house; host or cells: Escherichia coli BL21 (DE3)
T1 sequence (Q9Z148 969-1263): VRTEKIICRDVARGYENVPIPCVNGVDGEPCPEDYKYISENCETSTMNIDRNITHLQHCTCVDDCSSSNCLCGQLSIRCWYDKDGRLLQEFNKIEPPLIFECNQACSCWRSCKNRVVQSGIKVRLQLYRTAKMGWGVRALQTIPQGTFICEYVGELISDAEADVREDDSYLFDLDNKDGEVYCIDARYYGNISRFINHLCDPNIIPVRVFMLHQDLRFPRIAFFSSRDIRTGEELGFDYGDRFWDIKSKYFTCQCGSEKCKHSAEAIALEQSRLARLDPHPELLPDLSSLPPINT
The experiment in a line: MALDI-TOF methylation study of G9a enzymatic activity (H3 peptide, SAM). The format is biochemical. The method, then: Figure 3 compounds were synthesized from the commercially available starting material 1. An initial displacement reaction using a primary amine was used to introduce the C4 selective substitution, with the second displacement to introduce the linker at the C2 position following the microwave assisted reaction previously reported. Boc-protected ethylene diamine was treated with compound 2 at 160°C in a microwave for 10 min to yield product 3 with excellent yield. Afterward, the amine 3 was deprotected with TFA/DCM, and the free amine was treated with corresponding monomethyl esters (carbon chain 2-6) in the presence of coupling reagent EDCI and HOBt for about 8 hours to produce mono methyl ester substituted at the C2 position. The ester compounds further treated with hydroxylamine in water to get the corresponding hydroxamic acid derivatives, which were purified using reverse phase flash chromatography to obtain compounds 4-7 and 4a-7a in good yield. Synthesis of compounds in Figure 4 requires the C6 demethoxy core, and this was synthesized according to the reported procedure to yield 10 [45]. […] Compounds with the HDAC pharmacophore at the C4 position (Figure 2B) were synthesized from the starting material 1. […] A parallel synthesis and testing strategy were used in establishing the primary SAR, with the clear rationalization of the structure and activity at each stage we could reduce the synthetic targets. Initially, we evaluated the G9a potential after the introduction of HDAC pharmacophore. A biochemical assay using MALDI-TOF was used to visualize the effects of the synthesized compounds on G9a enzymatic activity, we carried out a biochemical reaction involving target enzyme G9a, methyl donor SAM and substrate H3 peptide at a concentration of 400 nM, 10 μM and 5 μM respectively.
Mouse histone methyltransferase G9a (969-1263) cDNA was amplified from the cDNA of BALB/c mouse thymus, and the fragment was sub-cloned into a vector with a 6His-sumo tag. The mouse G9a (mG9a) was expressed in Escherichia coli BL21 (DE3) by the addition of 1 mM isopropyl-1-thio-D-galactopyranoside (IPTG) and incubated overnight at 16°C.
The in vitro inhibition of G9a by the synthesized compounds were measured by MALDI-TOF mass spectrum (Bruker MALDI TOF/TOF Analyzer). 400 nM purified G9a, 5 μM synthesized histone H3 (1-21) and 10 μM non-radioactive S-adenosyl methionine (Sigma) were added in reaction buffer (50 mM HEPES pH 8.0, 5 μg/ml BSA and 0.1% β-Mercaptoethanol) with or without inhibitors (5 μM). The reaction was incubated at room temperature for 30 min, and stopped by TFA. 1 μl of the sample was mixed with CHCA matrix and m/z peaks were obtained at reflection positive mode. The results of mass spectrum were analyzed using the Bruker flex analysis software, a detailed description of data processing is provided as supplementary information (S3).
[…]
MALDI spectrums were collected using Bruker flex % conversion to product is also C, from this to get the control software and analyzed by flex analysis. After %maximal activity (%MA), C was compared to the % labelling each cluster peaks of H3K9Me0, H3K9Me1 conversion when no inhibitor was used (D). and H3K9Me2 for all of the tested concentrations, area Finally % inhibition was found by subtracting under the cluster (AUC) were extracted by using the same %MA from 100 […]
flex analysis software. % abundance of each peak was Example: % methylation levels and % inhibition calculated by following formula, when used 5 μM compound 14
A = % Abundance of (H3K9Me0) = area of A = 13.09
B = % Abundance of (H3K9Me1) = area of % conversion when no inhibitor was used D = 84.43 H3K9Me1/ (area of H3K9Me0+area of H3K9Me1 + area (average of six measurements) […]

The subject of a further experiment is HEK293 cells. As to the kind of experiment: Cell anti-proliferation / toxicity assay (CCK-8), HEK293 normal cell line. The format is cell-based. To be noted: Homo sapiens, Table 6, 72 h. How it is done:
as §3, §4

Experiment [4] deals with HDAC. As to the kind of experiment: Homogeneous cellular histone deacetylase assay, A549. As to conditions: Supplementary Table 2; NA = not active up to highest concentration tested (100 μM); >100 = IC50 not reached at 100 μM. It is filed as cell-based, human. How it is done: as §1, §2
The mark [5] stands for this setting: Supplementary Table 1, inhibitor 5 μM, 30 min, average of 3 values.

For the compound `COc1ccc2c(NC3CCN(Cc4ccccc4)CC3)nc(NCCNC(=O)CCCCCCC(=O)NO)nc2c1` [Compound 13, N1-(2-((4-((1-benzylpiperidin-4-yl)amino)-7-methoxyquinazolin-2-yl)amino)ethyl)-N8-hydroxyoctanediamide], the IC50 is 27.8 ± 0.59 µM in the experiment with HDAC [1], 15.3 ± 0.79 µM in the experiment on HDAC [2] and greater than 100 µM in the experiment on HDAC [4]. Also, the EC50 with A549 cells was greater than 100 µM; in the experiment on HEK293 cells, 57 ± 1.12 µM. The inhibition at 5 µM in experiment [3] (setting [5]) was determined as 24.9 ± 17.4%.
For `COc1ccc2c(NC3CCN(Cc4ccccc4)CC3)nc(NCCNC(=O)CCCCCC(=O)NO)nc2c1` [Compound 14, N1-(2-((4-((1-benzylpiperidin-4-yl)amino)-7-methoxyquinazolin-2-yl)amino)ethyl)-N7-hydroxyheptanediamide], the IC50 was 5.74 ± 1.23 µM in the experiment with HDAC [1], 13.8 ± 1.22 µM in the experiment with HDAC [2] and greater than 100 µM in the experiment with HDAC [4]. In addition, the concentration giving a half-maximal response (EC50) came out at 36.2 ± 1.76 µM in the experiment on A549 cells and 19.95 ± 0.19 µM with HEK293 cells. The inhibition at 5 µM in experiment [3] (setting [5]) was 29.7 ± 23.3%; in experiment [3] (worked example, single spectrum, 5 μM compound), 69.5%. In addition, the “A = % Abundance of (H3K9Me0)” value in experiment [3] (worked example, 5 μM compound) is listed as 13.09%. Besides, the “B = % Abundance of (H3K9Me1)” value in experiment [3] (worked example, 5 μM compound) is recorded as 61.18%. Besides, the “C = % Abundance of (H3K9Me2) (% conversion to product)” value in experiment [3] (worked example, 5 μM compound) is listed as 25.72%. Besides, the activity at 5 µM in experiment [3] (worked example, 5 μM compound, relative to no inhibitor (84.43), read-out: % maximal activity (%MA)) worked out at 30.5%.
